The text below walks through data of ChEMBL document CHEMBL1201862, “PubChem BioAssay data set” (2004).

One assay addresses T1, Caspase-3 (Homo sapiens, UniProt P42574).
T1 sequence (P42574 whole entry): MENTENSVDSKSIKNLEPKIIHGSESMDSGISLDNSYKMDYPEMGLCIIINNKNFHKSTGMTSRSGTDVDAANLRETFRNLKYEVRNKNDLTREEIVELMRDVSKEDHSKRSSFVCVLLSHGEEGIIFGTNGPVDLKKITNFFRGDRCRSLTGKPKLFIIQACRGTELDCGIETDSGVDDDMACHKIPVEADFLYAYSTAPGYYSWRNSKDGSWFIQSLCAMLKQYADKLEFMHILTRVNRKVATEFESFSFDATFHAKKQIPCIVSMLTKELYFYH
Nature of the assay: Dose-response confirmation of uHTS inhibitor hits of Sentrin-Specific Protease 8 in a Caspase-3 Fluorescence assay. It is filed as functional.

Assay [1] concerns the target T2, Sentrin-specific protease 8 (Homo sapiens, UniProt Q96LD8).
T2 sequence (Q96LD8 whole entry): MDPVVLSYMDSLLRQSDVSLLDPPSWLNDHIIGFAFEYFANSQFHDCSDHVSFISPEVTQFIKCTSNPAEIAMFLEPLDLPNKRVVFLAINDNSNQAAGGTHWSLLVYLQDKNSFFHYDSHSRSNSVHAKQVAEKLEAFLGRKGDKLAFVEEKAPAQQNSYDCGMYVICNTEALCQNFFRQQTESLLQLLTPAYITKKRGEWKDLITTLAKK
Type of assay: functional.

For assay [2], the target named is T3, Polyadenylate-binding protein 1 (Homo sapiens, UniProt P11940). The experiment in a line: PABP1 MLLE–PAM2 interaction inhibitors, dose response, miRNA deadenylation inhibitor project, biochemical, fluorescence polarization, Cy5-PAM2 peptide, secondary (AID 602260). Type of assay: functional. The note with it: read-out: IC50_Mean. (In general: Fluorescence polarisation rises when a labelled molecule tumbles more slowly, as on binding a larger partner.)

Assay [3] concerns the target T2, Sentrin-specific protease 8. Type of assay: functional. The source holds these as a separate data set.
The target in assay [4] is T3, Polyadenylate-binding protein 1. The experiment in a line: PABP1 MLLE–PAM2 binding inhibitor potency, dose response, biochemical, fluorescence polarization, FITC-PAM2 peptide (AID 602259). The note with it: read-out: IC50_Mean. It is filed as functional.
Assay [5] can be described thus: miR-122 activators in hepatoma reporter cells, dose response, cell-based, Huh7 psiCHECK-miR122, Renilla luciferase, cherry-picked (AID 651956).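 Also: huh7 hepatoma cells stably carrying a psiCHECK-2 miR-122 sensor plasmid; renilla luciferase signal reporting endogenous miR-122 activity after 48 h compound exposure.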 It is filed as functional.
Another assay has as its system A549. Nature of the assay: A549 cell toxicity, dose response, cytotoxicity control, plate reader, cherry-pick samples (AID 687028). Particulars: Homo sapiens. Type of assay: functional, cell-based.
The target in assay [6] is Mitochondrial peptide methionine sulfoxide reductase (Bos taurus, UniProt P54149). It is filed as functional.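 Also: absorbance read-out, biochemical high-throughput dose-response screen for MsrA inhibitors, confirmatory; recombinant bovine MsrA coupled to E. coli TrxB with NADPH and selenocystamine; potency is for inhibitors of MsrA activity on DMSO substrate.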
A short description of assay [7]: inhibitors of Vif binding to APOBEC3G peptide, primary screen, biochemical, TR-FRET, GST-Vif 1-94, biotin-A3G peptide, dose response retest (AID 1117319).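 Also: TR-FRET signal of purified GST-Vif binding a biotinylated A3G peptide; inhibitors lower the FRET signal by blocking Vif and A3G binding.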 It is filed as functional. Background: Time-resolved FRET reads energy transfer from a long-lived donor to a nearby acceptor.
Assay [8] addresses Tyrosine-protein phosphatase non-receptor type 5 (Homo sapiens, UniProt P54829). Nature of the assay: STEP phosphatase inhibitors, confirmation, biochemical, fluorescence intensity, uHTS hits (AID 602372). Type of assay: functional. Particulars: read-out: IC50_Mean.
A short description of assay [9]: inhibitors of intracellular T. cruzi replication, confirmation, NIH3T3 host cells, beta-gal luminescence (AID 2044).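 Also: intracellular parasites grown in NIH/3T3 mouse fibroblasts as host cells; luminescent beta-galactosidase reporter signal from transgenic T. cruzi replicating inside host cells; inhibitors lower the luminescence signal.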 Type of assay: functional, cell-based.
The target of the next assay is T4, Streptokinase A (Streptococcus pyogenes serotype M1, UniProt P10520).
T4 sequence (P10520 whole entry): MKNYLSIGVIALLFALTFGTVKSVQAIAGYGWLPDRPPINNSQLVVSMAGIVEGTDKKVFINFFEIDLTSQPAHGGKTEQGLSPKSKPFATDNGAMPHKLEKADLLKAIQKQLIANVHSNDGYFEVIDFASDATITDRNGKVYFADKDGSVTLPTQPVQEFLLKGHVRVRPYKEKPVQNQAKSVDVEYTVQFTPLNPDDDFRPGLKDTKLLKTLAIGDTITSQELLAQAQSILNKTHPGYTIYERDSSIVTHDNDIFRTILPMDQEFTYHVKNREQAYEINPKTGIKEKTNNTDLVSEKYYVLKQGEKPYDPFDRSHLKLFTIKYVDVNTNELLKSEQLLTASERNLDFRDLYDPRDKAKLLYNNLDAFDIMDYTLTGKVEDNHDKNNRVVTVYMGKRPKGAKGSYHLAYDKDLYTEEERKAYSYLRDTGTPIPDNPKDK
The experiment in a line: S. pyogenes streptokinase expression inhibitors, potency, dose response, plasminogen activation absorbance, OD405 (AID 1914).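 Also: secreted streptokinase activity via plasminogen activation per viability signal from cell pellet.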 It is filed as functional, Streptococcus pyogenes M1 GAS.

The target in assay [10] is Dual specificity protein phosphatase 3 (Homo sapiens, UniProt P51452). Nature of the assay: VHR phosphatase inhibition, dose response, selectivity assay for STEP inhibitor project, biochemical (AID 602374). The note with it: read-out: IC50_Mean. It is filed as functional.
For another assay, the system named is Streptococcus. Nature of the assay: Group A Streptococcus viability loss, dose response, counter-screen for streptokinase expression inhibitor project, luminescence, BacTiterGlo (AID 1915).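 Also: potency for reduction of bacterial viability or growth.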 Type of assay: functional, organism-based. Background: Counterscreens check selectivity or assay interference.
Assay [11] relates to Streptococcus sp. 'group A'. Nature of the assay: growth inhibition of control SK(-) GAS strain, dose response, counter-screen for streptokinase expression inhibitor project, luminescence, kanamycin, BacTiterGlo, confirmation (AID 1900). It is filed as functional, organism-based.
Assay [12] is described as follows: cytotoxicity toward NIH3T3 fibroblasts, dose response, counter-screen, cell-based, ATP luminescence, mouse fibroblasts (AID 2010).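 Also: cells exposed to compound for about 90 hours before reading.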 Type of assay: functional.
Assay [13] deals with Tyrosine-protein phosphatase non-receptor type 11 (Homo sapiens, UniProt Q06124). The experiment in a line: SHP2 phosphatase inhibition, dose response, selectivity assay for STEP inhibitor project, biochemical (AID 602367). Particulars: read-out: IC50_Mean. Type of assay: functional.

One may read the AC50 as the concentration at which the activity in the assay is half-maximal. The EC50 is the concentration giving half of the maximal effect.

Structures are written as SMILES. Activity calls are given as the source filed them. Bounds are passed on as bounds.

T3 sequence (P11940 whole entry): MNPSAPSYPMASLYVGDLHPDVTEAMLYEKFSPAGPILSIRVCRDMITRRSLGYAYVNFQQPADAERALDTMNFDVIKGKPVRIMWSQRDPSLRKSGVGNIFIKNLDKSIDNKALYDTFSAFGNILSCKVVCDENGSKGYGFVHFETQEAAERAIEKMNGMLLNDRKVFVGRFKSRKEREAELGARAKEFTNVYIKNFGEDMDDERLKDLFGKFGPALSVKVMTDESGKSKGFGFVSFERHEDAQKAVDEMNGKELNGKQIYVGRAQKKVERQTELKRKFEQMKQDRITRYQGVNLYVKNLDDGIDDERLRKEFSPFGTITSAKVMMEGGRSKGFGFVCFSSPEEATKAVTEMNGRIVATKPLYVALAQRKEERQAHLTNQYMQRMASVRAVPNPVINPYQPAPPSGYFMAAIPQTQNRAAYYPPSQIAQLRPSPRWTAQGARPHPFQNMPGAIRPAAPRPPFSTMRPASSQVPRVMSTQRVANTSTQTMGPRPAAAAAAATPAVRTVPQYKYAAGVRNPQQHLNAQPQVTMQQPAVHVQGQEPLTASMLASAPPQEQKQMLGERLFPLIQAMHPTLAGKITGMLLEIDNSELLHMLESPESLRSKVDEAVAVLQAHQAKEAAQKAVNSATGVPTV
Chain of Tyrosine-protein phosphatase non-receptor type 5 (P54829 whole entry): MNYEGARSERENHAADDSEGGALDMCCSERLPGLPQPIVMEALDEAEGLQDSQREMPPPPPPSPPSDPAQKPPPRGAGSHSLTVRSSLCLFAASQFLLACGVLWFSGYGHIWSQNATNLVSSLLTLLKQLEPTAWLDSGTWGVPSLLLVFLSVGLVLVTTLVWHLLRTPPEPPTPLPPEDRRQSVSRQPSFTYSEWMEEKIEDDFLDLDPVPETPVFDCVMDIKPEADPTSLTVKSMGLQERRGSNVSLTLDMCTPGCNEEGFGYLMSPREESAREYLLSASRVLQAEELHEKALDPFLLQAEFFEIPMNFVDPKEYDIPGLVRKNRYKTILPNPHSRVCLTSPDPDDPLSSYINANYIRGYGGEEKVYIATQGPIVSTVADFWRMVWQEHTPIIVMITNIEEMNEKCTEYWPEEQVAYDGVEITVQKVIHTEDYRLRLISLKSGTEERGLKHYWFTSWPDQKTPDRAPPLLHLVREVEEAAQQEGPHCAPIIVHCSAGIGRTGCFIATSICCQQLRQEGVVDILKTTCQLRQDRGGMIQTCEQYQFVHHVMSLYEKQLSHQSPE
Chain of Tyrosine-protein phosphatase non-receptor type 11 (Q06124 whole entry): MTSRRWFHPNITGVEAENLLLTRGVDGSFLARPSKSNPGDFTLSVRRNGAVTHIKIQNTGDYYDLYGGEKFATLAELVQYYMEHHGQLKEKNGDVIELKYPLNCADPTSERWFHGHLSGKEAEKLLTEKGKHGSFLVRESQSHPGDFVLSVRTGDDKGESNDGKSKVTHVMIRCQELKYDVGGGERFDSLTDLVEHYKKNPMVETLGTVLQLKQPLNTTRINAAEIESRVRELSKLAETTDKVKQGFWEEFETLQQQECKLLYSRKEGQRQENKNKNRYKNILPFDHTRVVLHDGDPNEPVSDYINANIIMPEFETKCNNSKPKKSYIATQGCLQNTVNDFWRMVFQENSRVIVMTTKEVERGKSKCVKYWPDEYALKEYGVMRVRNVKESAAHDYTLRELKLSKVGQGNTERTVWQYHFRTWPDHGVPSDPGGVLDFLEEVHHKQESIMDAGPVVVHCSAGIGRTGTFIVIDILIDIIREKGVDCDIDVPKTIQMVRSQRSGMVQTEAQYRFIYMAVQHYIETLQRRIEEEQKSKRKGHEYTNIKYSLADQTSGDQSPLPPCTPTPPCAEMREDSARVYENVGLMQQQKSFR
Chain of Dual specificity protein phosphatase 3 (P51452 whole entry): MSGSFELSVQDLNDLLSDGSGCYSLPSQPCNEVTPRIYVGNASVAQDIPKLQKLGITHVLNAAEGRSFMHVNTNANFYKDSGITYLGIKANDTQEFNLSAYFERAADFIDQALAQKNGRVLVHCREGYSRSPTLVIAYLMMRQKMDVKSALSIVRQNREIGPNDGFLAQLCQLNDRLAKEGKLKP
Chain of Mitochondrial peptide methionine sulfoxide reductase (P54149 whole entry): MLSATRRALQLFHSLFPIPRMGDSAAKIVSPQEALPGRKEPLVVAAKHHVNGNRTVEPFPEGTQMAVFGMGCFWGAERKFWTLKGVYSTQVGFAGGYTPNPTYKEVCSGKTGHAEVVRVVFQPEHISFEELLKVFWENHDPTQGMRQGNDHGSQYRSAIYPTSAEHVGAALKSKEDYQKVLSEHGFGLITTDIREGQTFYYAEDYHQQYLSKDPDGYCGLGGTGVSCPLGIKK

Regarding `Cc1ccc(N2C(=O)[C@@H]3[C@H](C2=O)C2c4ccccc4C=CN2[C@@H]3C(=O)c2ccco2)cc1` (some centres not stated), the IC50 is 4.41 µM (active) at Caspase-3; 5.38 µM (active) in assay [1]; > 66 µM (inactive) in [2]; 0.785 µM (active) in assay [3]; > 66 µM (inactive) in assay [4].
Take `C[C@H](CO)N1C[C@H](C)[C@H](CN(C)CC2CCCCC2)OCCCC[C@H](C)Oc2ccc(NC(=O)Nc3cccc4ccccc34)cc2C1=O`: in assay [5], the AC50 is 3.25 µM (active).
As to `CCCCCCCCN1C(=O)[C@H](CC(=O)NCCC(C)C)C[C@@]2(C(=O)OCC)CCCC=C12`, the AC50 with A549 is 21 µM (active).
Consider `NC(=S)N/N=C/c1ccc(-c2cccc([N+](=O)[O-])c2)o1`, for which the figures for the IC50 in assay [6] and in assay [7] were 155 µM (inactive) and > 100 µM (active), respectively.
As for `SC1=NC(C23CC4CC(CC(C4)C2)C3)=CC(c2ccc3c(c2)OCO3)N1` (configuration not stated), the results for the IC50 in assay [8], in [10] and in assay [13] were 56.8 µM (inactive), 3.52 µM (active) and 15 µM (active), respectively. Further, the EC50 in [9] was 2.44 µM (active); on Streptokinase A, 22.5 µM (active); in the assay with Streptococcus, > 150 µM (not active); in [11] it was 13.6 µM (active); in assay [12], > 60 µM (not active).
